Columns and labels:
[1] = biological target: T1, dCDA partially purified from BxPC-3 cells (Homo sapiens, UniProt P32320); assay: dCDA activity (competition) assay, conversion of dCyd to dUrd; format: biochemical; conditions: 0.5 mM dCyd, 37° C., 15 min; inhibitor […] (FIG. 2B)
T1 construct: dCDA was partially purified from BxPC-3 cells as previously described; endogenous in cells; host or cells: BxPC-3 (ATCC CRL-1687), 40-55% ammonium sulfate fraction of the cell lysate
Method: Proton NMR spectra were recorded on a 300 MHz Varian UNITYplus™ or a 500 MHz Varian INOVA. Chemical shifts (δ) of ^1H NMR spectra were recorded in parts per million (ppm) relative to tetramethylsilane (TMS), which was the reference (δ=0 ppm). ^1H NMR data are reported according to the following order: chemical shift, integration (i.e., number of hydrogen atoms), multiplicity (s=singlet, d=doublet, t=triplet, q=quartet, m=multiplet, br=broad, brs=broad singlet), and coupling constant in Hertz (Hz). […] The concentrations of dCyd and dUrd in the dCDA assay were determined using an Agilent 1260 Infinity high performance liquid chromatography (HPLC) with an Agilent ZORBAX® Eclipse Plus C18 column (4.6×150 mm, 5 μm) attached to a ZORBAX® Eclipse Plus guard column (Agilent Technologies, Inc., Santa Clara, Calif.).
dCDA was partially purified from BxPC-3 cells as previously described. […] Protein concentration was measured using Bradford reagent from Sigma-Aldrich. […] The mixture was centrifuged at 10,000 g for 1 min, and the upper layer was analyzed using HPLC (detection wavelength, 260 nm; mobile phase, 10% methanol in water). The relevant peaks were quantified to determine the concentrations of dCyd and dUrd. […]

MIA PaCa-2 cells = assay: In vitro cytotoxicity assay (MTT), 96 h; format: cell-based, human; conditions: Homo sapiens, MIA PaCa-2, 96 h incubation
Source text: Human leukemia cell line CCRF-CEM (CCL-119), human pancreatic cancer cell lines PANC-1 (CRL-1469), MIA PaCa-2 (CRL-1420), and BxPC-3 (CRL-1687), human breast adenocarcinoma cell line MCF-7 (HTB-22), and mouse lung cancer cell line TC-1 (CRL-2785) were from the American Type Culture Collection (Rockville, Md.). CCRF-CEM-AraC-8C cells (hENT1 deficient) and CCRF-CEM/dCK^−/− cells (dCK deficient) were kindly provided by Dr. Buddy Ullmann (Oregon Health & Science University, Portland, Oreg.) and Dr. Margaret Black (Washington State University, Pullman, Wash.), respectively. L1210 wt and L1210 10K were kindly supplied by Dr. Lars Petter Jordheim (Université Claude Bernard Lyon I, Lyon, France). TC-1-GR cells were previously developed in our lab. CCRF-CEM, CCRF-CEM-AraC-8C, CCRF-CEM/dCK^−/−, L1210 wt, L1210 10K, TC-1, and TC-1-GR cells were cultured in RPMI 1640 medium. MCF-7 and PANC-1 cells were cultured in Dulbecco's modified Eagle medium (DMEM), MIA PaCa-2 cells were cultured in DMEM medium with 2.5% horse serum. All media were supplemented with 10% fetal bovine serum (FBS), 100 U/mL of penicillin, and 100 μg/mL of streptomycin (all from Invitrogen, Carlsbad, Calif.).
Cells (5,000/well) were seeded in 96-well plates. After overnight incubation, they were treated with various concentrations of gemcitabine HCl, gemcitabine derivatives, or gemcitabine derivatives in nanoparticles at 37° C., 5% CO2. TC-1 and TC-1-GR cells were incubated for 48 h. CCRF-CEM, CCRF-CEM-AraC-8C, CCRF-CEM/dCK^−/−, L1210 wt, L1210 10K, and MCF-7 cells were incubated for 72 h, and MIA PaCa-2 and PANC-1 for 96 h. Gemcitabine HCl was dissolved in phosphate-buffered saline (PBS), and gemcitabine derivatives were dissolved in dimethyl sulfoxide (DMSO). […] The number of viable cells after the incubation was determined using an MTT assay. Briefly, 3-(4,5-dimethylthiazol-2-yl)-2,5-diphenyltetrazolium bromide (20 μl, 5 mg/mL) was added in each well and incubated for 3 h. Formazan crystals were solubilized with acidified isopropanol (150 μl) (for CCRF-CEM, CCRF-CEM-AraC-8C, CCRF-CEM/dCK^−/−, L1210 wt, and L1210 10K cells) or DMSO (150 μl) (for TC-1, TC-1-GR, MCF-7, PANC-1, and MIA PaCa-2). Absorbance was measured using a BioTek Synergy™ HT Multi-Mode Microplate Reader (BioTek Instruments, Winooski, Vt.) at 570 nm and 630 nm. The fraction of affected (dead) cells (Fa) and the fraction of unaffected (live) cells (Fu) at every dose were calculated, and the Log(Fa/Fu) values were plotted against the Log(concentration of gemcitabine). IC50 was the dose at Log(Fa/Fu)=0, See e.g., Chou, T. C. & Talalay, P., 1984, Adv. Enzyme Regul. 22:27-55. The experiment was repeated at least three times.

T1 sequence (P32320 whole entry): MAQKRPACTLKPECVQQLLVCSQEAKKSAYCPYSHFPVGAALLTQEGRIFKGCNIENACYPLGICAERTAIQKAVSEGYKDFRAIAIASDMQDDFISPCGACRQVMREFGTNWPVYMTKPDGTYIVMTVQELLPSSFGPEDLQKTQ

SMILES: Cl.Nc1ccn([C@@H]2O[C@H](CO)[C@@H](O)C2(F)F)c(=O)n1 [Gemcitabine HCl, 2′,2′-difluorodeoxycytidine HCl, reference compound]
- Inhibition of the deamination of dCyd (conversion to dUrd) by dCDA [1]: competitively inhibited the conversion of dCyd to dUrd
- IC50 (MIA PaCa-2 cells): 49.7 ± 17.7 nM
